From patent US8927717B1, “Thiochromeno[2,3-c]quinolin-12-one derivatives, preparation method and application thereof” (National Defense Medical Center, priority 2014, dated 2015)

How the values were obtained:
Assay type in all cases: cell-based
SK-MEL-5 = conditions: SK-MEL-5; five dose
UACC-62 = conditions: UACC-62
OVCAR-5 = conditions: OVCAR-5
OVCAR-8 = conditions: OVCAR-8
NCI/ADR-RES = conditions: NCI/ADR-RES
SK-OV-3 = conditions: SK-OV-3
786-0 = conditions: 786-0
A498 = conditions: A498
RXF 393 = conditions: RXF 393; 10^−5 molar
SN12C = conditions: SN12C
TK-10 = conditions: TK-10
UO-31 = conditions: UO-31
PC-3 = conditions: PC-3
DU-145 = conditions: DU-145
MCF7 = conditions: MCF7
MDA-MB-231/ATCC = conditions: MDA-MB-231/ATCC
BT-549 = conditions: BT-549
T-47D = conditions: T-47D
MDA-MB-486 = conditions: MDA-MB-486
60 cancer cell lines = assay: NCI 60-cell screen, SRB, whole panel (mean, delta, range)
[1] = Homo sapiens, five dose, read-out: LC50 (the source's name)

With `O=c1c2cc(Cl)ccc2sc2c(NCc3ccccc3)nc3ccccc3c12` [Compound N25, 6-(Benzylamino)-10-chloro-12H-thiochromeno[2,3-c]quinolin-12-one] the TGI (SK-MEL-5) was >100 µM, the GI50 (UACC-62; Homo sapiens, five dose) was 16.9 µM and the CC50 (UACC-62; [1]) was > 100 µM. For the same compound, the Growth percent (UACC-62; 10^−5 molar) was 89.20%, the TGI (UACC-62; five dose) was >100 µM and the GI50 (OVCAR-5; Homo sapiens, five dose) was > 100 µM. The CC50 (OVCAR-5; [1]) was > 100 µM, the Growth percent (OVCAR-5; 10^−5 molar) was 91.27% and the TGI (OVCAR-5; five dose) was >100 µM. The GI50 (OVCAR-8; Homo sapiens, five dose) was 7.75 µM, the CC50 (OVCAR-8; [1]) was > 100 µM and the Growth percent (OVCAR-8; 10^−5 molar) was 68.33%. The TGI (OVCAR-8; five dose) was >100 µM, the GI50 (NCI/ADR-RES; Homo sapiens, five dose) was 43 µM and the CC50 (NCI/ADR-RES; [1]) was > 100 µM. The Growth percent (NCI/ADR-RES; 10^−5 molar) was 77.36%, the TGI (NCI/ADR-RES; five dose) was >100 µM and the GI50 (SK-OV-3; Homo sapiens, five dose) was 3.56 µM. The CC50 (SK-OV-3; [1]) was > 100 µM, the Growth percent (SK-OV-3; 10^−5 molar) was 36.71% and the TGI (SK-OV-3; five dose) was 13.90 µM. For the same compound, the Growth percent (786-0; 10^−5 molar) was 72.48%, the TGI (786-0; five dose) was 48.70 µM and the GI50 (786-0; Homo sapiens, five dose) was 9.55 µM. For the same compound, the CC50 (786-0; [1]) was > 100 µM, the Growth percent (A498; 10^−5 molar) was 86.46% and the TGI (A498; five dose) was 39.20 µM. For the same compound, the GI50 (A498; Homo sapiens, five dose) was 8.05 µM, the CC50 (A498; [1]) was > 100 µM and the Growth percent (RXF 393) was 71.08%. The GI50 (SN12C; Homo sapiens, five dose) was 24.9 µM, the CC50 (SN12C; [1]) was > 100 µM and the Growth percent (SN12C; 10^−5 molar) was 87.80%. The TGI (SN12C; five dose) was >100 µM, the GI50 (TK-10; Homo sapiens, five dose) was 5.02 µM and the CC50 (TK-10; [1]) was > 100 µM. It also gave a Growth percent (TK-10; 10^−5 molar) of 75.80%, a TGI (TK-10; five dose) of 22.30 µM and a GI50 (UO-31; Homo sapiens, five dose) of 57.8 µM. The CC50 (UO-31; [1]) was > 100 µM, the Growth percent (UO-31; 10^−5 molar) was 65.31% and the TGI (UO-31; five dose) was >100 µM. For the same compound, the GI50 (PC-3; Homo sapiens, five dose) was 56.9 µM, the CC50 (PC-3; [1]) was > 100 µM and the Growth percent (PC-3; 10^−5 molar) was 72.70%. For the same compound, the TGI (PC-3; five dose) was >100 µM, the Growth percent (DU-145; 10^−5 molar) was 74.80% and the TGI (DU-145; five dose) was >100 µM. For the same compound, the GI50 (DU-145; Homo sapiens, five dose) was 5.5 µM, the CC50 (DU-145; [1]) was > 100 µM and the GI50 (MCF7; Homo sapiens, five dose) was 0.04 µM. The CC50 (MCF7; [1]) was > 100 µM, the Growth percent (MCF7; 10^−5 molar) was 16.01% and the TGI (MCF7; five dose) was 18.60 µM. For the same compound, the GI50 (MDA-MB-231/ATCC; Homo sapiens, five dose) was 2.36 µM, the CC50 (MDA-MB-231/ATCC; [1]) was > 100 µM and the Growth percent (MDA-MB-231/ATCC; 10^−5 molar) was 32.67%. The TGI (MDA-MB-231/ATCC; five dose) was 34.80 µM, the Growth percent (BT-549; 10^−5 molar) was 97.19% and the TGI (BT-549; five dose) was >100 µM. The GI50 (BT-549; Homo sapiens, five dose) was 20.5 µM, the CC50 (BT-549; [1]) was > 100 µM and the GI50 (T-47D; Homo sapiens, T47D, five dose) was 1.26 µM. The CC50 (T-47D; Homo sapiens, T47D, five dose, read-out: LC50 (the source's name)) was > 100 µM, the Growth percent (T-47D; 10^−5 molar) was 38.08% and the TGI (T-47D; five dose) was 7.11 µM. For the same compound, the GI50 (MDA-MB-486; 60 cell, five dose) was 0.03 µM, the CC50 (MDA-MB-486; 60 cell, five dose, read-out: LC50 (the source's name)) was 63.1 µM and the Growth percent (MDA-MB-486; 10^−5 molar) was −9.83%. The TGI (MDA-MB-486; five dose) was 0.66 µM, the GI50 (60 cancer cell lines; 60 cell, mean over panel, five dose) was 11.2 µM and the CC50 (60 cancer cell lines; 60 cell, mean over panel, five dose, read-out: LC50, Mean) was 91.2 µM. For the same compound, the “Growth percent, Delta” value (60 cancer cell lines; delta over panel, 10^−5 molar) was 81.80%, the “Growth percent, Mean” value (60 cancer cell lines; mean over panel, 10^−5 molar) was 71.97% and the “TGI, Mean” value (60 cancer cell lines; mean over panel, five dose) was 53.70 µM. The “Growth percent, Range” value (60 cancer cell lines; range over panel, 10^−5 molar) was 112.76%.
